Test results from patent publication US20190225643A1, “NOVEL NUCLEOSIDE ANALOGS AND USE THEREOF IN THERAPEUTIC TREATMENT” (CORNELL UNIVERSITY, priority 2016, published 2019).

Tests used:
[1] = system: normal plasma cells (CD19-, CD138+) from human tonsils; test: Toxicity on normal primary tonsillar lymphocytes; format: cell-based; details: 1 μM and 10 μM, 24 hours
Procedure: Primary human tonsil specimens were obtained from the Weill Cornell/New York Presbyterian Institutional Biobank. Lymphocytes were isolated from human tonsil tissue by dissection and maceration in RPMI media. Lymphocyte-containing media was passed through a 70 μm filter and pelleted at 400 g for 7 minutes. RBC were lysed for 5 minutes in RBC lysing solution (0.15M ammonium chloride, 10 mM potassium bicarbonate, […]). After dilution to 50 ml with RPMI, lymphocytes were filtered through a […] filter, counted and pelleted a second time. Total B cells were isolated using magnetic cell sorting according to manufacturer instructions (Miltenyi Cat#130-091-151). Cells were plated at 2 million cells/ml in RPMI with 20% FBS and 100 μg/ml Primocin (Invivogen) and laid over gamma-irradiated CDW32 feeder cells. Cells were then treated with DMSO, 1 μM or 10 μM 6-ETI for 24 hrs. […] Data was acquired on a BD LSR2 Flow Cytometer and analyzed using FlowJo software. The frequency of plasma cells was assessed based on singlet-gated cells expressing CD138.

[2] = system: PA-Tu-8988T pancreatic adenocarcinoma cell line; format: cell-based, human
Procedure: (§1) Cell viability assays were performed by plating log-phase cells in RPMI complete media with 20% FBS at 1*10^5 cells/mL, with concentrations of 6-ETI or phospho-6-ETI ranging from 0.1 nM to 100 μM. ATP content at 24, 48 and 72 hours post-treatment was measured by the CellTiter-Glo kit (Promega, Madison, Wis.), or by Trypan blue assay as indicated. The LC50 for 6-ETI in each cell line was determined using online EC50 software at changbioscience.com or using GraphPad Prism to determine the LC50 for 6-ETI, phospho-6-ETI and nucleoside analogs in MM cell lines and primary MM patient samples.
Pancreatic adenocarcinoma PA-Tu-8988T cell line was kindly provided by Lewis Cantley's lab (Weill Cornell Medicine). […] of ADK in this cell line was achieved by transducing these cells with ADK shRNA Lentiviral Particles (Santa crux) and selecting the stable cell line using 2 μg/ml Puromycin.

[3] = system: KSHV latent proteins LANA, vFLIP and vCyclin; test: Western blot of KSHV latent proteins; format: cell-based
Procedure: For all intracellular signaling studies, cell lines were plated at 2*10^5 cells/mL or at indicated densities in RPMI-1640 with 20% FBS, and treated with the stated concentrations of 6-ETI, from 6 to 48 hours. Immunoblotting was performed using the following antibodies: PARP (BD Pharmingen, 556494), LC3B (Cell Signaling, 2775S), phospho-l-listone H2AX.X S139 (Cell Signaling, 2577S), GAPDH (Gene Tex, GTX100118), ADK (Santa Cruz, sc-365470) vFLIP 6/14 antibody was a gift from Mary Collins at University College of London, vCyclin (Abcam, ab12208), LANA (Advanced Biotechnologies, 13-210-100), β-Actin (Sigma A5316), p65 (Cell Signaling C22B4, p50 (Cell Signaling 3035), October-1 (Cell Signaling 4428), p-IκBα (Santa Cruz 3-9 sc-8404), IκBα (Santa Cruz C-21 sc-371), pIKKα/β (ser 176)(Santa Cruz sc-21661), IKKα (Santa Cruz H-744 sc-7218).

[4] = system: colon (RKO, HCT116, DID1) and pancreatic (PA-TU-8988T) cancer cell lines; test: Viability of adenocarcinoma cell lines; format: cell-based
Procedure: as §1

[5] = system: IBL1, LY7 and BCKN1 cells; test: Viability assay at higher plating density; format: cell-based; details: 5*10^5 cells/mL versus original assay conditions
Procedure: as §1, with “Cell viability assays were performed by plating log-phase cells in RPMI complete media with 20% FBS at 1*10^5 cells/mL, with concentrations of 6-ETI or phospho-6-ETI ranging from 0.1 nM to 100 μM.” left out

[6] = system: DNA synthesis in U266 cells; test: Click-iT EdU DNA synthesis assay, MM cells; format: cell-based, human; details: 24 hrs
Procedure: BC3 and U266 cells were seeded at a density of 0.5 million cells/ml and treated with DMSO only, 1 μM or 1.0 μM 6-ETI for BC3 cells and 0.5 μM 6-ETI for U266 cells for 24 hrs. At 24 hrs post 6-ETI treatment, 0.5 million cells of each of the treated conditions were labeled with 10 μM of EdU for 2 hours then fixed for 30 min using 2% paraformaldehyde supplemented with 0.3M sucrose. Cells were then washed in PBS and perineabilized with 0.2% saponin, PBS with 1% BSA and 0.3M sucrose for 20 min at room temperature. During this incubation time, a click-iT cocktail mix containing, click iT reaction buffer, CuSO4, alexafluor488 and click iT reaction buffer additive was prepared according to the manufacturer's instructions. Cells were washed in PBS after permeabilization and the click-iT cocktail mix was added for 30 min at room temperature in the absence of light. To visualize DNA, cells were counterstained with Hoechst (1:1000) for another 30 min then washed and resuspended in PBS with 1% BSA. 20 μl of the resuspended cells were combined with 20 μl of mounting media Fluoromount-G (Southern biotech) and cells were mounted on Ibidi μ-slides. Cells were imaged using DeltaVision image restoration microscope (Rockefeller center).

## CCSc1ncnc2c1ncn2[C@@H]1O[C@H](CO)C(O)[C@@H]1O (stereo partly drawn) [Compound 6-ETI, 6-ethylthioinosine]
[1]
  total number or proportion of normal plasma cells: did not find a decrease in the total number or proportion of plasma cells
[2]
  change in LC50 on ADK knockdown: a log increase in LC50
[3]
  latent viral protein expression: no reduction was seen in latent viral protein expression
[4]
  LC50: nanomolar range
[5]
  LC50 change at higher cell density: decreased strikingly
[6]
  DNA synthesis (EdU incorporation): suppressed DNA synthesis
